Measurements as given in patent publication US20170224679A1, “Use of CXCR2 Antagonists For The Prevention and/or Treatment of Chemotherapy Induced Peripheral Neuropathy (CIPN)” (GlaxoSmithKline Intellectual Property Development Limited, priority 2014, published 2017).

Columns and labels:
[1] = target: T1, CXCR1 receptor (Homo sapiens, UniProt P25024); test: Receptor binding assay ([125I] IL-8 SPA), CXCR1; set-up: expressed in transfected cells; host or cells: CHO cells (membranes); details: [125I] IL-8 binding, CHO-CXCR1 membranes; read-out: pIC50 against the CXCR1 receptor (converted)
T1 sequence (P25024 1-350): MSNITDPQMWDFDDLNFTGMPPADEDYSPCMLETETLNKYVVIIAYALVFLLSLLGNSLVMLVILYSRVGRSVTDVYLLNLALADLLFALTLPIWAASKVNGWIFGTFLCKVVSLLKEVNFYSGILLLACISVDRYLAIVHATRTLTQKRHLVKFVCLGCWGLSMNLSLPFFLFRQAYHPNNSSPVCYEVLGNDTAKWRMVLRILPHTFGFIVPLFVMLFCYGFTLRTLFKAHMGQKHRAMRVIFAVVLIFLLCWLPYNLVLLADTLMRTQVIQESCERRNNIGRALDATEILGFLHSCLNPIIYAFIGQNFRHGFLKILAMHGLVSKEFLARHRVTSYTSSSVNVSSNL
Procedure: [^125I] IL-8 (human recombinant, IM249) was obtained from Amersham Corp., Arlington Heights, Ill., with specific activity 2000 Ci/mmol. All other chemicals were of analytical grade. High levels of recombinant human CXCR1 and CXCR2 receptors were individually expressed in Chinese hamster ovary (CHO) cells as described in Holmes, et al., Science, 1991, 253, 1278, incorporated herein to the extent required to perform the present assay. The Chinese hamster ovary membranes were prepared according to Haour, et al., J. Biol. Chem., 249 pp 2195-2205 (1974), incorporated herein to the extent required to perform the present assay, except that the homogenization buffer was changed to 40 mM Tris-HCL pH 7.5 containing 1 mM MgSO4, 0.5 mM EDTA (ethylene-diaminetetra-acetic acid), 1 mM PMSF (α-toluene-sulphonyl fluoride), 2.5 mg/L Leupeptin and 0.1 mg/ml Aprotinin. Membrane protein concentration was determined using Bio-Rad Reagent using bovine serum albumin as a standard. All binding assays were conducted using Scintillation Proximity Assay (SPA assay) using wheatgerm agglutinin beads in a 96-well micro plate (optiplate 96, Packard) format. […] The 96-well plates were incubated on a shaking platform for 1 hour. At the end of the incubation the plates were spun for 5 min at 2000 RPM, and counted in a Top Count counter.

[2] = target: T2, CXCR2 receptor (Homo sapiens, UniProt P25025); test: CXCR2 Tango assay; type: cell-based; set-up: fused on or other part: TEV protease cleavage site and Gal4-VP16 transcription factor fused to the receptor (Invitrogen Tango construct); no part of the key; details: Tango reporter gene, 80 nM hCXCL1; read-out: pIC50 against the CXCR2 receptor (converted)
T2 sequence (P25025 1-360): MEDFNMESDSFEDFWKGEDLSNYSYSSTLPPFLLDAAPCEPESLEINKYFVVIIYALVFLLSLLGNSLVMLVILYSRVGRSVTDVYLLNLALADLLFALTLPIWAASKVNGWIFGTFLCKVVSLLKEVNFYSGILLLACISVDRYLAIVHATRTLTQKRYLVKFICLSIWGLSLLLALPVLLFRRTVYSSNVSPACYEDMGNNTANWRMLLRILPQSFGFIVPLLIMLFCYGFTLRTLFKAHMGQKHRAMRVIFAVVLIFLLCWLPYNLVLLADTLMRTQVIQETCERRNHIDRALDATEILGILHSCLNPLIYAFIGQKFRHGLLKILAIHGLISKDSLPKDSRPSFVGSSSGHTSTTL
From the text: The assay measures ligand-induced activation of the receptor CXCR2 in a stable cell line containing the recombinant human CXCR2 linked to a TEV protease site and a Gal4-VP16 transcription factor (Invitrogen). Ligand binding to the receptor results in the recruitment of arrestin proteins (tagged with protease) to the receptor and triggers the release of a tethered transcription factor. The transcription factor enters the nucleus and activates the transcription of the reporter gene. The ability of a compound to inhibit CXCR2 activation is indirectly assessed by measuring the reporter gene activity.
A vial of cryopreserved cells was removed from liquid nitrogen and rapidly thawed in a water bath at 37° C. with gentle agitation. The cell contents were collected and resuspended in Assay Medium at a density of ˜200,000 cells/ml. All test compounds were dissolved in DMSO at a concentration of 10 mM and then were serially diluted to generate a 10-point dose response curve into 384-well assay plate (Greiner 781090) using an Echo (Labcyte) concentration-response program (50 nl/well). The cell-free, un-stimulated and positive controls were loaded with 50 nl/well pure DMSO to ensure that the DMSO concentration was constant across the plate for all assays. Using Multi-drop Combi (Thermo) with standard cassette, 50 μl of Assay Medium was added to cell-free control wells in compound-containing assay plate; 50 μl of the cell suspension without hCXCL1 (a CXCR2 ligand) was added to un-stimulated control wells (10,000 cells per well); and 50 μl of the cell suspension with 80 nM hCXCL1 was added to the rest of wells of the assay plate (10,000 cells per well). The cells were incubated overnight at 37° C./5% CO2·10 μl of 6× substrate mixture (LiveBLAzer™-FRET B/G substrate (CCF4-AM) Cat #K1096 from Invitrogen, Inc.) was added to each well using Multi-drop Combi (Thermo) with small-tube cassette and the plate was incubated at room temperature for 2 h in the dark. The plate was then read on EnVision using one excitation channel (409 nm) and two emission channels (460 nm and 530 nm).
The blue/green emission ratio (460 nm/530 nm) was calculated for each well by dividing the background-subtracted Blue emission values by the background-subtracted Green emission values. The dose response curve was based on sigmoidal dose-response model. All ratio data was normalized based upon the maximum emission ratio of positive control (hCXCL1) and minimum emission ratio of negative control (DMSO) on each plate.

[3] = system: HCT116 cell line; test: Colorectal cancer cell line proliferation assay, HCT116; type: cell-based; details: HCT116, 72 hours
Procedure: Cell proliferation assay: Cells were seeded in 96-well plates (Costar) at different cell densities: HCT116, 500 cells per well; Caco-2, 1000 cells per well. Total volume of the medium was 90 μl per well. Cells were incubated for 24 hours at 37° C. and 5% CO2 incubator. […] The final concentration of the Compound of Formula (A) was 8.5 μM. […] The cell proliferation rate was measured by adding 100 μl of CellTiter-Glo™ (Promega) according to the manufacturer's instructions. After 10 minutes of incubation, the cell lysates were transferred into OptiPlate-384 well, the luminescence was recorded by BioTek Synergy™ 4 Hybrid Microplate Reader with Gen5 software. All data points were generated in five replicates. Three independent experiments were performed. […] All data were presented as the mean±standard error of the mean determined from three independent experiments.

[4] = system: Sprague-Dawley rats; test: CXCR2 antagonist effect on repeat dosing oxaliplatin induced sensory injury rat; details: Veh/Oxa rats, 4 mg/kg i.p. twice per week for 4 weeks, Day 29-31, mean±SEM
Procedure: Male Sprague-Dawley rats (109-167 g, ˜5weeks old) were housed in cages in groups of three in a controlled environment of constant temperature and moisture (temperature: 25±3° C., light: dark cycle of 12:12 hours) with food (25 g/rat/day of LabDiet 5053) and water available ad libitum.
MC (Sigma Cat #423238) was made up in water at 1% (w/v) (1 g per 100 mL water) and left on a stirrer until completely dissolved. The formulation was prepared every 6-8 days in 400-700 mL each time and stored at 4° C. protected from light. The dosing volume used was 10 mL/kg to give a 20 mg/kg p.o. dose. Vehicle treated animals were dosed b.i.d. with 1% MC w/v at 10 mL/kg p.o.
A fresh solution was prepared before every injection. Control vehicle animals were treated with 5% w/v Gluclose at 5ml/kg. Glucose (Sigma Aldrich Cat #G7021) was made up in milli-Q water at 5% (w/v) (5 g per 100 mL water) and left on a stirrer until completely dissolved.
Body weight tracking: The bodyweights of rats were measured twice a week for 4 weeks on Days 1, 3, 9, 11, 16, 18, 23, and 25. […]
Rats were anesthetized with chloral hydrate (350 mg/kg, 3.5 mL/kg, i.p.). […] The right sciatic nerve was carefully identified and conduction velocity was measured by recording action potentials from an electrode placed between the second and third digits as described by Jamieson et al., Br. J. Cancer, 88(12):1942-7 (2003), and electrically stimulating the nerve (5V, 0.5 s, single-wave pulses) via a platinum wire electrode at the sciatic notch and ankle. The length between the sciatic notch and ankle was measured.
The nerve conduction velocity was calculated as the length between sciatic notch and ankle divided by the difference between the time latencies at the stimulation sites [latency (sciatic notch)−latency (ankle)].
A 1 cm segment of the left sciatic nerve (distal end) was located and carefully dissected out. […] The ratio of inner area over entire area of nerve fibers of sciatic nerves was then calculated as an indicator of thickness of myelin sheath of nerves.

Cc1c(F)cccc1NC(=O)Nc1ccc(Cl)c(S(=O)(=O)C2CCCNC2)c1O (stereo not shown) [Compound of Formula (B), 1-(4-chloro-2-hydroxy-3-(piperidin-3-ylsulfonyl)phenyl)-3-(3-fluoro-2-methylphenyl)urea]
IC50 [1]: 1000 nM

CC1=CCC[C@H]1NC(=O)Nc1ccc(Cl)c(S(=O)(=O)[C@]2(C)CCOC2)c1O [Compound of Formula (C), 1-(4-chloro-2-hydroxy-3-(((R)-3-methyltetrahydrofuran-3-yl)sulfonyl)phenyl)-3-((R)-2-methylcyclopent-2-en-1-yl)urea]
IC50 [2]: 1 nM

CC1(S(=O)(=O)c2c(Cl)ccc(NC(=O)N[C@@H]3CCC=C3Cl)c2O)CCOCC1 [Compound of Formula (E), (R)-1-(4-chloro-2-hydroxy-3-((4-methyltetrahydro-2H-pyran-4-yl)sulfonyl)phenyl)-3-(2-chlorocyclopent-2-en-1-yl)urea]
IC50 [2]: 1.58 nM

CC1=CCC[C@H]1NC(=O)Nc1ccc(C#N)c(S(=O)(=O)C(C)(C)C)c1O [Compound of Formula (F), (R)-1-(3-(tert-butylsulfonyl)-4-cyano-2-hydroxyphenyl)-3-(2-methylcyclopent-2-en-1-yl)urea]
IC50 [2]: 0.2 nM

CC1=CCC[C@H]1NC(=O)Nc1ccc(Cl)c(S(=O)(=O)[C@H]2C[C@H](N3CCCC3)C2)c1O [Compound of Formula (G), 1-(4-chloro-2-hydroxy-3-((trans-3-(pyrrolidin-1-yl)cyclobutyl)sulfonyl)phenyl)-3-((R)-2-methylcyclopent-2-en-1-yl)urea]
IC50 [2]: 1 nM

CC1=CCC[C@H]1NC(=O)Nc1ccc(Cl)c(S(=O)(=O)[C@H]2C[C@H](N(C)C)C2)c1O [Compound of Formula (H), 1-(4-chloro-3-((trans-3-(dimethylamino)cyclobutyl)sulfonyl)-2-hydroxyphenyl)-3-((R)-2-methylcyclopent-2-en-1-yl)urea]
IC50 [2]: 1 nM

CC1=CCC[C@H]1NC(=O)Nc1ccc(Cl)c(S(=O)(=O)C(C)(F)F)c1O [Compound of Formula (I), (R)-1-(4-chloro-3-((1,1-difluoroethyl)sulfonyl)-2-hydroxyphenyl)-3-(2-methylcyclopent-2-en-1-yl)urea]
IC50 [2]: 0.398 nM

O=C1[O][Pt]2([NH][C@@H]3CCCC[C@H]3[NH]2)[O]C1=O [Oxaliplatin, oxaliplatin]
pIC50 inhibition of cell proliferation ([3]; oxaliplatin with vehicle, mean±SEM): 6.049±0.016 | pIC50 inhibition of cell proliferation in the presence of Compound of Formula (A) ([3]; with Compound of Formula (A) 8.5 μM): 6.05±0.02 | sciatic nerve conduction velocity between sciatic notch and ankle [4]: 35.99±0.59 m/s
